The IC50 is the concentration that inhibits the measured activity by half. Lower therefore signals greater potency in that assay.

The text below walks through data of patent US10793563B2, “GCN2 inhibitors and uses thereof” (Merck Patent GmbH, priority 2018, dated 2020).

Molecules are shown by their SMILES.

Chain of GCN2 kinase (Q9P2K8 whole entry): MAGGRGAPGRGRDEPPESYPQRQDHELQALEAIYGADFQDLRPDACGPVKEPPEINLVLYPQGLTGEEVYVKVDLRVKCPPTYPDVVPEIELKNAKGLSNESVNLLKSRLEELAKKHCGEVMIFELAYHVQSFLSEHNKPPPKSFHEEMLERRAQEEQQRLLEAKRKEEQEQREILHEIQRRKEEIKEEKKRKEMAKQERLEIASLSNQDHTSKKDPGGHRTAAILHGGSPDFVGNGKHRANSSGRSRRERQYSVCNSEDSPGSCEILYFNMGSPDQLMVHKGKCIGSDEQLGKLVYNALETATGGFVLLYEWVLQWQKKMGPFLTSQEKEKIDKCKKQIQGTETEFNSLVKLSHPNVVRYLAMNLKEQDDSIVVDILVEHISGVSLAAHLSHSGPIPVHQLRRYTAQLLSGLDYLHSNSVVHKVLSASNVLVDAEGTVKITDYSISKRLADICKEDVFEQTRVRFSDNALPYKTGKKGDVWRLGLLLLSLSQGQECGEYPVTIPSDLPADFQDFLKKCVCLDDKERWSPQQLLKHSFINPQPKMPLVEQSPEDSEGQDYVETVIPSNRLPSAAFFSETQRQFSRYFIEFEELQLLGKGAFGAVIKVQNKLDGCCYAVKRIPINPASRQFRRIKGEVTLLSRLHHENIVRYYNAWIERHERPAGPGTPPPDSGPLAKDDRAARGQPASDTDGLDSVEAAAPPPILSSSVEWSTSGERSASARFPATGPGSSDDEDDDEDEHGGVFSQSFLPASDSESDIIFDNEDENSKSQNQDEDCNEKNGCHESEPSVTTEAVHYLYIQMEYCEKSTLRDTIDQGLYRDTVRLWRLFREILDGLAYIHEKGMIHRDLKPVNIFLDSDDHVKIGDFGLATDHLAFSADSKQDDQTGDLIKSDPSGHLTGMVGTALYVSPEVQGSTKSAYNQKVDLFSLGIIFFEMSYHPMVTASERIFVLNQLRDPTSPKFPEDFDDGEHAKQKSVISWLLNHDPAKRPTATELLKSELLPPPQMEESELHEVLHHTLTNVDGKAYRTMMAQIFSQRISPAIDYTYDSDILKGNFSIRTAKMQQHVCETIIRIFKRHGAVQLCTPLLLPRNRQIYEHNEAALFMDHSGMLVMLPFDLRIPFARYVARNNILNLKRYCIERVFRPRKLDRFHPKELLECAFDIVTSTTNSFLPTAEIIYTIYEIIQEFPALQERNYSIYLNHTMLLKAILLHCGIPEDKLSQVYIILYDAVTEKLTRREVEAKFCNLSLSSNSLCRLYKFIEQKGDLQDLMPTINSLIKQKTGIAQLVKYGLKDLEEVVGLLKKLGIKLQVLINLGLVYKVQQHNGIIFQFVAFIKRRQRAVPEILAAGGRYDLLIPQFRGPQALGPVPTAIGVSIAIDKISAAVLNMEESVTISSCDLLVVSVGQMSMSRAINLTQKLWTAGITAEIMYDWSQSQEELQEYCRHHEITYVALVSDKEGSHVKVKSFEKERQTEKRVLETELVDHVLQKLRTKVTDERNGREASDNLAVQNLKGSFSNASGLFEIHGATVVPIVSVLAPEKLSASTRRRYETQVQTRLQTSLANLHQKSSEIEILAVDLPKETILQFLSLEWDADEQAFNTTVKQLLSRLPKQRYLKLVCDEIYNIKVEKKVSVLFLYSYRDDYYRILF

One experiment concerns the target GCN2 kinase (Homo sapiens (Human), UniProt Q9P2K8). Briefly: GCN2 Enzyme Inhibition Assay (Transcreener ADP2 fluorescence polarization). Particulars: 280 μM ATP, 200 μM (RS)7 peptide, 4 nM GCN2, 25° C. It is filed as biochemical. As for the experimental part: Compounds were screened for their ability to inhibit GCN2 kinase activity using a Transcreener® ADP^2 fluorescence polarization assay that detects ADP levels (BellBrook Labs, WI). Assays were carried out in a buffer consisting of 25 mM Tris-HCl (pH 7.5), 50 mM NaCl, 10 mM MgCl2 and 1 mM DTT. […] Assays were carried out at 25° C. in the presence of a (typical) final concentration of 4 nM GCN2 kinase. An assay buffer containing GCN2 kinase and (RS)7 was prepared. […] The plate was incubated for 10 minutes at 25° C. prior to the addition of 4.7 μL of ATP stock buffer to initiate the enzyme reaction. The reaction was allowed to proceed for 1 hour at 25° C., prior to the addition of 10 μL detection buffer (consisting of appropriate concentrations of ADP^2 antibody and ADP Alexa633 tracer in 1× stop and detect buffer as supplied by BellBrook Labs). […] Percentage inhibition of enzyme activity was then calculated at each compound dose. IC50 and Ki(app) (using known assay and kinetic parameters) values were calculated from percentage inhibition data using a non-linear, tight-binding algorithm. All data analysis was undertaken using the Screener® software package (Genedata, Switzerland).
For `CC1CN(c2ccnc(-c3cnc4ccc(C(F)(F)F)cn34)n2)CCC1n1cccn1` (stereo not shown) [I-379, 3-(4-(3-methyl-4-(1H-pyrazol-1-yl)piperidin-1-yl)pyrimidin-2-yl)-6-(trifluoromethyl)imidazo[1,2-a]pyridine], the IC50 lay within 0.01 to 0.1 µM.
Same read-out and setting: next, `CC1CN(c2ccnc(-c3cnc4ccc(C(F)(F)F)cn34)n2)CC(C)N1` (stereo not shown) [I-231, 3-(4-(3,5-dimethylpiperazin-1-yl)pyrimidin-2-yl)-6-(trifluoromethyl)imidazo[1,2-a]pyridine]: 0.1 to 1 µM.
The same measure, in the same setting: next, `Cc1[nH]ncc1[C@@H]1CN(c2ccnc(-c3cnc4cc(F)c(C5CC5)cn34)n2)C[C@H](C)O1` [I-429, (2S,6R)-4-(2-(6-cyclopropyl-7-fluoroimidazo[1,2-a]pyridin-3-yl)pyrimidin-4-yl)-2-methyl-6-(5-methyl-1H-pyrazol-4-yl)morpholine]: less than 0.01 µM; `O=C(N[C@H]1C[C@H](O)CN(c2ccnc(-c3cnc4ccc(C(F)(F)F)cn34)n2)C1)c1cn[nH]c1` [I-257, N-((3S,5S)-5-hydroxy-1-(2-(6-(trifluoromethyl)imidazo[1,2-a]pyridin-3-yl)pyrimidin-4-yl)piperidin-3-yl)-1H-pyrazole-4-carboxamide]: 0.1 to 1 µM.
Still for that read-out and setting: in the case of `C[C@@H]1CN(c2ccnc(-c3cnc4ccc(C(F)(F)F)cn34)n2)C[C@H](C)N1C(=O)c1ccncc1` [I-483, (cis-2,6-dimethyl-4-(2-(6-(trifluoromethyl)imidazo[1,2-a]pyridin-3-yl)pyrimidin-4-yl)piperazin-1-yl)(pyridin-4-yl)methanone] it was 0.1 to 1 µM; in that of `Fc1ccccc1CN1CCN(c2ccnc(-c3cnc4ccc(C(F)(F)F)cn34)n2)CC1c1cn[nH]c1` (stereo not shown) [I-459, 3-(4-(4-(2-fluorobenzyl)-3-(1H-pyrazol-4-yl)piperazin-1-yl)pyrimidin-2-yl)-6-(trifluoromethyl)imidazo[1,2-a]pyridine], less than 0.01 µM; in that of `CC1(O)CC(C(=O)N2CCN(c3ccnc(-c4cnc5ccc(C(F)(F)F)cn45)n3)CC2c2cn[nH]c2)C1` (stereo not shown) [I-509, (2-(1H-pyrazol-4-yl)-4-(2-(6-(trifluoromethyl)imidazo[1,2-a]pyridin-3-yl)pyrimidin-4-yl)piperazin-1-yl)(3-hydroxy-3-methylcyclobutyl)methanone], 0.1 to 1 µM.
In turn, `Cc1[nH]ncc1[C@H]1CN(c2ccnc(-c3cnc4cc(F)c(C5CC5)cn34)n2)C[C@H](C)O1` [I-428, (2S,6S)-4-(2-(6-cyclopropyl-7-fluoroimidazo[1,2-a]pyridin-3-yl)pyrimidin-4-yl)-2-methyl-6-(5-methyl-1H-pyrazol-4-yl)morpholine] came in with an IC50 of 0.01 to 0.1 µM.
With `CC(=O)N1C(C)CN(c2ccnc(-c3cnc4ccc(Cl)cn34)n2)CC1c1c[nH]nc1C` (stereo not shown) [I-276, 1-(4-(2-(6-chloroimidazo[1,2-a]pyridin-3-yl)pyrimidin-4-yl)-2-methyl-6-(3-methyl-1H-pyrazol-4-yl)piperazin-1-yl)ethan-1-one], the IC50 fell in the range of 0.1 to 1 µM.
On the same count and under the same terms, in the case of `C[C@@H]1CN(c2ccnc(-c3cnc4ccc(C(F)(F)F)cn34)n2)C[C@@H](C(N)=O)O1` [I-265, (2S,6R)-6-methyl-4-(2-(6-(trifluoromethyl)imidazo[1,2-a]pyridin-3-yl)pyrimidin-4-yl)morpholine-2-carboxamide] it was 0.01 to 0.1 µM; in that of `Cc1oncc1C(=O)N1CCN(c2ccnc(-c3cnc4ccc(C(F)(F)F)cn34)n2)C[C@@H]1c1cn[nH]c1` [I-549, (S)-(2-(1H-pyrazol-4-yl)-4-(2-(6-(trifluoromethyl)imidazo[1,2-a]pyridin-3-yl)pyrimidin-4-yl)piperazin-1-yl)(5-methylisoxazol-4-yl)methanone], 0.1 to 1 µM.
The same measure, in the same setting: in the case of `O=S1(=O)CCN2CCN(c3ccnc(-c4cnc5ccc(C(F)(F)F)cn45)n3)CC2C1` (stereo not shown) [I-338, 8-(2-(6-(trifluoromethyl)imidazo[1,2-a]pyridin-3-yl)pyrimidin-4-yl)octahydropyrazino[2,1-c][1,4]thiazine 2,2-dioxide] it was 0.1 to 1 µM.
The same measure, in the same setting: next, `C[C@@H]1CN(c2ccnc(-c3cnc4ccc(C(F)(F)F)cn34)n2)C[C@H](C)N1S(C)(=O)=O` [I-439, 3-(4-(cis-3,5-dimethyl-4-(methylsulfonyl)piperazin-1-yl)pyrimidin-2-yl)-6-(trifluoromethyl)imidazo[1,2-a]pyridine]: 0.1 to 1 µM; `CC(C)(C)OC(=O)N1CCN(c2ccnc(-c3cnc4ccc(C(F)(F)F)cn34)n2)CC1C(N)=O` (stereo not shown) [I-207, tert-butyl 2-carbamoyl-4-(2-(6-(trifluoromethyl)imidazo[1,2-a]pyridin-3-yl)pyrimidin-4-yl)piperazine-1-carboxylate]: 0.1 to 1 µM.
`CC1C(C(N)=O)NCCN1c1ccnc(-c2cnc3ccc(Cl)cn23)n1` (stereo not shown) [I-451, 4-(2-{6-chloroimidazo[1,2-a]pyridin-3-yl}pyrimidin-4-yl)-3-methylpiperazine-2-carboxamide] returned an IC50 of 0.01 to 0.1 µM.
The molecule `CC1(C(N)=O)CCCN(c2ccnc(-c3cnc4ccc(C(F)(F)F)cn34)n2)C1` (stereo not shown) [I-192, 3-methyl-1-(2-(6-(trifluoromethyl)imidazo[1,2-a]pyridin-3-yl)pyrimidin-4-yl)piperidine-3-carboxamide] had an IC50 of 0.01 to 0.1 µM.
The same measure, in the same setting: next, `Fc1ccc(CN2CCN(c3ccnc(-c4cnc5ccc(C(F)(F)F)cn45)n3)CC2c2cn[nH]c2)cc1` (stereo not shown) [I-457, 3-(4-(4-(4-fluorobenzyl)-3-(1H-pyrazol-4-yl)piperazin-1-yl)pyrimidin-2-yl)-6-(trifluoromethyl)imidazo[1,2-a]pyridine]: 0.01 to 0.1 µM; `CC(C)(C(N)=O)C1CCCN(c2ccnc(-c3cnc4ccc(Cl)cn34)n2)C1` (stereo not shown) [I-309, 2-(1-(2-(6-chloroimidazo[1,2-a]pyridin-3-yl)pyrimidin-4-yl)piperidin-3-yl)-2-methylpropanamide]: 0.1 to 1 µM.
The molecule `CC1CN(c2ccnc(-c3cnc4ccc(C(F)(F)F)cn34)n2)CC(C)N1C1COC1` (stereo not shown) [I-234, 3-(4-(3,5-dimethyl-4-(oxetan-3-yl)piperazin-1-yl)pyrimidin-2-yl)-6-(trifluoromethyl)imidazo[1,2-a]pyridine] registered an IC50 of 0.01 to 0.1 µM.
On the same count and under the same terms, next, `Cc1nn(C)cc1[C@H]1CN(c2nccc(-c3cnc4ccc(C(F)(F)F)cn34)n2)C[C@@H](C)O1` [I-158, (2S,6R)-2-(1,3-dimethyl-1H-pyrazol-4-yl)-6-methyl-4-(4-(6-(trifluoromethyl)imidazo[1,2-a]pyridin-3-yl)pyrimidin-2-yl)morpholine]: 0.01 to 0.1 µM; `FC(F)(F)c1ccc2ncc(-c3nccc(N4CCN(C5CCOCC5)C(c5cn[nH]c5)C4)n3)n2c1` (stereo not shown) [I-456, 3-(4-(3-(1H-pyrazol-4-yl)-4-(tetrahydro-2H-pyran-4-yl)piperazin-1-yl)pyrimidin-2-yl)-6-(trifluoromethyl)imidazo[1,2-a]pyridine]: 0.01 to 0.1 µM.
Same read-out and setting: in the case of `CC1(C(N)=O)CCN(c2ccnc(-c3cnc4ccc(C(F)(F)F)cn34)n2)CC1` [I-188, 4-methyl-1-(2-(6-(trifluoromethyl)imidazo[1,2-a]pyridin-3-yl)pyrimidin-4-yl)piperidine-4-carboxamide] it was 0.01 to 0.1 µM.
On the same count and under the same terms, next, `COCCN1C(C)CN(c2ccnc(-c3cnc4ccc(C(F)(F)F)cn34)n2)CC1C` (stereo not shown) [I-335, 3-(4-(4-(2-methoxyethyl)-3,5-dimethylpiperazin-1-yl)pyrimidin-2-yl)-6-(trifluoromethyl)imidazo[1,2-a]pyridine]: 0.1 to 1 µM; `Clc1ccc2ncc(-c3nccc(N4CCCC5(CNC5)C4)n3)n2c1` [I-299, 6-(2-(6-chloroimidazo[1,2-a]pyridin-3-yl)pyrimidin-4-yl)-2,6-diazaspiro[3.5]nonane]: 0.1 to 1 µM; `CC1C(C(N)=O)NCCN1c1ccnc(-c2cnc3ccc(C(F)(F)F)cn23)n1` (stereo not shown) [I-380, 3-methyl-4-{2-[6-(trifluoromethyl)imidazo[1,2-a]pyridin-3-yl]pyrimidin-4-yl}piperazine-2-carboxamide]: less than 0.01 µM.
`Cc1nn(C)cc1C(=O)N1CCN(c2ccnc(-c3cnc4ccc(C(F)(F)F)cn34)n2)C[C@@H]1C` [I-480, (S)-(1,3-dimethyl-1H-pyrazol-4-yl)(2-methyl-4-(2-(6-(trifluoromethyl)imidazo[1,2-a]pyridin-3-yl)pyrimidin-4-yl)piperazin-1-yl)methanone] returned an IC50 of 0.1 to 1 µM.
On the same count and under the same terms, in the case of `NC(=O)C1CC12CCCN(c1ccnc(-c3cnc4ccc(Cl)cn34)n1)C2` (stereo not shown) [I-132, 5-(2-(6-chloroimidazo[1,2-a]pyridin-3-yl)pyrimidin-4-yl)-5-azaspiro[2.5]octane-1-carboxamide] it was 0.01 to 0.1 µM; in that of `COCCN1CCN(c2ccnc(-c3cnc4ccc(C(F)(F)F)cn34)n2)CC1C(N)=O` (stereo not shown) [I-258, 1-(2-methoxyethyl)-4-(2-(6-(trifluoromethyl)imidazo[1,2-a]pyridin-3-yl)pyrimidin-4-yl)piperazine-2-carboxamide], 0.01 to 0.1 µM.
For `CC1CN(c2ccnc(-c3cnc4ccc(Cl)cn34)n2)C(C)C(c2cn[nH]c2)N1` (stereo not shown) [I-122, 6-Chloro-3-(4-(2,5-dimethyl-3-(1H-pyrazol-4-yl)piperazin-1-yl)pyrimidin-2-yl)imidazo[1,2-a]pyridine], the IC50 is less than 0.01 µM.

Still in this experiment, the particulars now being: Ki(app); 280 μM ATP, 200 μM (RS)7 peptide, 4 nM GCN2, 25° C.
In the case of `CC1C(C(N)=O)NCCN1c1ccnc(-c2cnc3ccc(C(F)(F)F)cn23)n1` (stereo not shown) [I-380, 3-methyl-4-{2-[6-(trifluoromethyl)imidazo[1,2-a]pyridin-3-yl]pyrimidin-4-yl}piperazine-2-carboxamide], the Ki is less than 0.01 µM.
`N[C@H]1CCCN(c2ccnc(-c3cnc4ccc(Cl)cn34)n2)C1` [I-87, (3S)-1-(2-{6-chloroimidazo[1,2-a]pyridine-3-yl}pyrimidin-4-yl)piperidin-3-amine] gave a Ki of 0.1 to 1 µM.
